# Laboratory results reported in PubChem BioAssay (NCI).
#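 The compound was tested at five concentrations on cells cultured in 96-well plates, with a 48-hour exposure period. GI50 marks 50% less growth. TGI marks complete inhibition of growth.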
# What was measured:
# Experiment in all cases: NCI anticancer screen, dose series, 48 h
# SK-OV-3 ovarian = tested on: SK-OV-3 ovarian
# UO-31 renal = tested on: UO-31 renal
# UACC-62 melanoma = tested on: UACC-62 melanoma
# PC-3 prostate = tested on: PC-3 prostate
# HS 578T breast = tested on: HS 578T breast
# LOX IMVI melanoma = tested on: LOX IMVI melanoma
# SW-620 colon = tested on: SW-620 colon
# RXF 393 renal = tested on: RXF 393 renal
# NCI/ADR-RES ovarian = tested on: NCI/ADR-RES ovarian
# A549 NSCLC = tested on: A549 NSCLC
# TK-10 renal = tested on: TK-10 renal
# K-562 leukemia = tested on: K-562 leukemia
# MDA-MB-231 breast = tested on: MDA-MB-231 breast
# SK-MEL-5 melanoma = tested on: SK-MEL-5 melanoma
# MCF7 breast = tested on: MCF7 breast
# SR leukemia = tested on: SR leukemia
# BT-549 breast = tested on: BT-549 breast
# M14 melanoma = tested on: M14 melanoma
# RPMI-8226 leukemia = tested on: RPMI-8226 leukemia
# HT29 colon = tested on: HT29 colon
# HCC-2998 colon = tested on: HCC-2998 colon
# NCI-H23 lung = tested on: NCI-H23 lung
# DU-145 prostate = tested on: DU-145 prostate
# CAKI-1 renal = tested on: CAKI-1 renal
# EKVX NSCLC = tested on: EKVX NSCLC
# COLO 205 colon = tested on: COLO 205 colon
# NCI-H460 lung = tested on: NCI-H460 lung
# OVCAR-5 ovarian = tested on: OVCAR-5 ovarian
# ACHN renal = tested on: ACHN renal
# CCRF-CEM leukemia = tested on: CCRF-CEM leukemia
# KM12 colon = tested on: KM12 colon
# HOP-92 NSCLC = tested on: HOP-92 NSCLC
# OVCAR-4 ovarian = tested on: OVCAR-4 ovarian
# U251 CNS = tested on: U251 CNS
# HCT-15 colon = tested on: HCT-15 colon
# NCI-H226 lung = tested on: NCI-H226 lung
# HL-60(TB) leukemia = tested on: HL-60(TB) leukemia
# SF-295 CNS = tested on: SF-295 CNS
# 786-0 renal = tested on: 786-0 renal
# HOP-62 NSCLC = tested on: HOP-62 NSCLC
# T-47D breast = tested on: T-47D breast
# SN12C renal = tested on: SN12C renal
# A498 renal = tested on: A498 renal
# SNB-19 CNS = tested on: SNB-19 CNS
# SK-MEL-28 melanoma = tested on: SK-MEL-28 melanoma
# SF-539 CNS = tested on: SF-539 CNS
# UACC-257 melanoma = tested on: UACC-257 melanoma
# MALME-3M melanoma = tested on: MALME-3M melanoma
# IGROV1 ovarian = tested on: IGROV1 ovarian
# MDA-MB-435 = tested on: MDA-MB-435
# HCT-116 colon = tested on: HCT-116 colon
# MOLT-4 leukemia = tested on: MOLT-4 leukemia
# OVCAR-8 ovarian = tested on: OVCAR-8 ovarian
# SNB-75 CNS = tested on: SNB-75 CNS
# SF-268 CNS = tested on: SF-268 CNS
# OVCAR-3 ovarian = tested on: OVCAR-3 ovarian
# SK-MEL-2 melanoma = tested on: SK-MEL-2 melanoma
# NCI-H522 lung = tested on: NCI-H522 lung
smiles,measurement,setting,value
COc1ccc2c(c1)C(C)Cc1c(ncnc1-n1c(C)nc3ccccc31)N2C (stereo unspecified),GI50,SK-OV-3 ovarian,3.53 µM
same,TGI,SK-OV-3 ovarian,18.5 µM
same,GI50,UO-31 renal,4.59 µM
same,TGI,UO-31 renal,20.7 µM
same,GI50,UACC-62 melanoma,4.83 µM
same,TGI,UACC-62 melanoma,22.3 µM
same,GI50,PC-3 prostate,3.25 µM
same,TGI,PC-3 prostate,27.3 µM
same,GI50,HS 578T breast,4.12 µM
same,TGI,HS 578T breast,25.3 µM
same,GI50,LOX IMVI melanoma,4.42 µM
same,TGI,LOX IMVI melanoma,23.9 µM
same,GI50,SW-620 colon,6.24 µM
same,TGI,SW-620 colon,28 µM
same,GI50,RXF 393 renal,2.83 µM
same,TGI,RXF 393 renal,9.21 µM
same,GI50,NCI/ADR-RES ovarian,2 µM
same,TGI,NCI/ADR-RES ovarian,19.3 µM
same,GI50,A549 NSCLC,4.82 µM
same,TGI,A549 NSCLC,24.7 µM
same,GI50,TK-10 renal,7.28 µM
same,TGI,TK-10 renal,45.9 µM
same,GI50,K-562 leukemia,0.452 µM
same,TGI,K-562 leukemia,13.3 µM
same,GI50,MDA-MB-231 breast,4.56 µM
same,TGI,MDA-MB-231 breast,28.2 µM
same,GI50,SK-MEL-5 melanoma,3.42 µM
same,TGI,SK-MEL-5 melanoma,13 µM
same,GI50,MCF7 breast,1.88 µM
same,TGI,MCF7 breast,19.9 µM
same,GI50,SR leukemia,0.345 µM
same,TGI,SR leukemia,5.54 µM
same,GI50,BT-549 breast,5.82 µM
same,TGI,BT-549 breast,30.6 µM
same,GI50,M14 melanoma,2.62 µM
same,TGI,M14 melanoma,15.4 µM
same,GI50,RPMI-8226 leukemia,3.96 µM
same,TGI,RPMI-8226 leukemia,24.3 µM
same,GI50,HT29 colon,2.81 µM
same,TGI,HT29 colon,8.94 µM
same,GI50,HCC-2998 colon,4.09 µM
same,TGI,HCC-2998 colon,16.4 µM
same,GI50,NCI-H23 lung,3.08 µM
same,TGI,NCI-H23 lung,18.5 µM
same,GI50,DU-145 prostate,3.27 µM
same,TGI,DU-145 prostate,13.4 µM
same,GI50,CAKI-1 renal,4.48 µM
same,TGI,CAKI-1 renal,78.8 µM
same,GI50,EKVX NSCLC,3.94 µM
same,TGI,EKVX NSCLC,21.8 µM
same,GI50,COLO 205 colon,2.76 µM
same,TGI,COLO 205 colon,11.1 µM
same,GI50,NCI-H460 lung,3.85 µM
same,TGI,NCI-H460 lung,14.4 µM
same,GI50,OVCAR-5 ovarian,13 µM
same,TGI,OVCAR-5 ovarian,39.8 µM
same,GI50,ACHN renal,6.56 µM
same,TGI,ACHN renal,23.1 µM
same,GI50,CCRF-CEM leukemia,2.85 µM
same,TGI,CCRF-CEM leukemia,16.4 µM
same,GI50,KM12 colon,2.59 µM
same,TGI,KM12 colon,17.8 µM
same,GI50,HOP-92 NSCLC,3.34 µM
same,TGI,HOP-92 NSCLC,17.4 µM
same,GI50,OVCAR-4 ovarian,6.24 µM
same,TGI,OVCAR-4 ovarian,61.8 µM
same,GI50,U251 CNS,4.51 µM
same,TGI,U251 CNS,17.7 µM
same,GI50,HCT-15 colon,1.83 µM
same,TGI,HCT-15 colon,16.9 µM
same,GI50,NCI-H226 lung,11.5 µM
same,TGI,NCI-H226 lung,36.1 µM
same,GI50,HL-60(TB) leukemia,2.59 µM
same,TGI,HL-60(TB) leukemia,9.7 µM
same,GI50,SF-295 CNS,1.79 µM
same,TGI,SF-295 CNS,7.85 µM
same,GI50,786-0 renal,5.83 µM
same,TGI,786-0 renal,29.2 µM
same,GI50,HOP-62 NSCLC,4.23 µM
same,TGI,HOP-62 NSCLC,24.6 µM
same,GI50,T-47D breast,6.5 µM
same,TGI,T-47D breast,49.9 µM
same,GI50,SN12C renal,13 µM
same,TGI,SN12C renal,77.6 µM
same,GI50,A498 renal,2.15 µM
same,TGI,A498 renal,9.03 µM
same,GI50,SNB-19 CNS,4.45 µM
same,TGI,SNB-19 CNS,23.1 µM
same,GI50,SK-MEL-28 melanoma,11.1 µM
same,TGI,SK-MEL-28 melanoma,26.2 µM
same,GI50,SF-539 CNS,2.34 µM
same,TGI,SF-539 CNS,6.92 µM
same,GI50,UACC-257 melanoma,14.8 µM
same,TGI,UACC-257 melanoma,33.5 µM
same,GI50,MALME-3M melanoma,11.3 µM
same,TGI,MALME-3M melanoma,25.2 µM
same,GI50,IGROV1 ovarian,6.3 µM
same,TGI,IGROV1 ovarian,36.2 µM
same,GI50,MDA-MB-435,0.315 µM
same,TGI,MDA-MB-435,1.89 µM
same,GI50,HCT-116 colon,3.46 µM
same,TGI,HCT-116 colon,16.2 µM
same,GI50,MOLT-4 leukemia,2.39 µM
same,TGI,MOLT-4 leukemia,12.5 µM
same,GI50,OVCAR-8 ovarian,4.83 µM
same,TGI,OVCAR-8 ovarian,40.1 µM
same,GI50,SNB-75 CNS,2.41 µM
same,TGI,SNB-75 CNS,11.1 µM
same,GI50,SF-268 CNS,11.5 µM
same,TGI,SF-268 CNS,39.7 µM
same,GI50,OVCAR-3 ovarian,2.53 µM
same,TGI,OVCAR-3 ovarian,8.79 µM
same,GI50,SK-MEL-2 melanoma,4.48 µM
same,TGI,SK-MEL-2 melanoma,17.8 µM
same,GI50,NCI-H522 lung,1.96 µM
same,TGI,NCI-H522 lung,5.38 µM
